Measured values as given in patent publication US8591908B2, “Immunogen for preparation of therapeutic vaccines or drugs for treatment of hepatitis B and the producing method and use thereof” (Institute of Immunology, PLA, priority 2002, dated 2013).
Ends that are not written are not given here. * marks the point of attachment. Palmitoyl = CCCCCCCCCCCCCCCC(=O)*; Lauroyl = CCCCCCCCCCCC(=O)*

Experiments:
[1] = test system: PBMCs from acute hepatitis B patient in convalescent phase; test: Proliferation of lymphocytes in PBMC of acute hepatitis B patient, 3H-TdR; type: cell-based, human; conditions: 0.1 μg, 1 μg and 10 μg/ml with IL-2
Experimental: Anticoagulant peripheral blood was collected aseptically from acute hepatitis B patient in convalescent phase, PBMCs were isolated by conventional Ficoll-Hypaque density gradient centrifugation and were cultured in RPMI1640 cultural media (containing 10% calf serum, 100 u/ml penicillin-streptomycin, L-glutamine) in vitro on 24-well cell culture plate at a concentration of 10^6/ml. Blank control group, test group, and Pre-S (2) control group were included. IL-2 (30 IU/ml) and test drug (0.1 μg/ml, 1 μg/ml, 10 μg/ml) were separately added into the wells. After the cells were cultured for 6 days, IL-2 and the test drug were added at the same doses to stimulate the cells again. Then 3H-TdR (1 uCi/ml) was added and further cultured for 18 hours. The cells were collected and tested by liquid scintillation.

[2] = test system: PBMCs from hepatitis B patient; test: Lymphocyte activation (Th1/Th2) of PBMCs from hepatitis B patient; type: cell-based, human; conditions: IL-4, IL-10, IFN-γ in culture supernatants, acute and chronic hepatitis
Text: Acute and chronic hepatitis blank control groups, acute hepatitis+/test drug group and chronic hepatitis+/test drug group were included to test the Th1/Th2 activation by Endogen kit or EELISPOT method.

[3] = test system: 2215, E6 and T2 target cells; test: FIG. 4: induced CTL cytotoxicity, 51Cr release test; type: cell-based, human; conditions: 10 ng test drug; E/T 12.5, 25, 50, 100
Experimental: (§1) FIG. 4 indicated the effect of inducing cytotoxicity. […] Three days after the last stimulation, antigen-specific effector CTL cells were obtained, and their cytotoxic activities were measured by the standard ^51Cr release test and compared. […] Twenty-four hours after the last stimulation to HLA-A2+ human PBMC, the effects of the test drug to induce the proliferating INF-γ secreting CTL cells in peripheral blood lymphocytes were measured in the ELISPOT method and compared.

[4] = test system: HLA-A2+ human PBMC; test: FIG. 4: IFN-γ secreting CTL cells, ELISPOT; type: cell-based; conditions: 24 h after last stimulation
Experimental: as §1

[5] = test system: Balb/c mice; test: ELISPOT test of induced cytotoxicity in immunized mice; type: in vivo; conditions: IFN-γ ELISPOT of PBMC
Text: Balb/c mice of 2-3 Months old (both male and female) were divided into 8 groups, and were immunized with the present compound at both postpede palmas once a week for three times at different doses: 0.001 nmol, 0.01 nmol, 0.1 nmol, 0.5 nmol, 1 nmol, 10 nmol, 20 nmol, and 40 nmol respectively. Bloods were taken postorbitally from mice under sterile conditions on the 6th, 12th, 18th and 24th day after the end of immunization respectively and were anticoagulatant-treated. PBMCs were isolated by Ficoll-Hypaque method, and were cultured in RPMI1640 culture media (containing 10% calf serum, and 100μ/ml penicillin-streptomycin) (10^6/ml, 96-well culture plate) in vitro for one day. After they returned to the original growth state, they were used as test cells. ELISPOT 96-well cell culture plate was pre-coated with IFN-γ coating antibody overnight, each well was treated in triplicate. The wells were blocked with RPMI1640 containing 5% calf serum at room temperature for 1 hour. After drying in air, test cells were added (5×10^4 cells/100 μl/well, containing RPMI1640 media, 10% calf serum, 100μ/ml myciline, and 1 μg/ml peptide), wherein the PBMC of mice immunized with melan A27-35 peptide were set as negative control. […] Then the plate was washed again and dried in air, the substrate was added for visualization and the number of spots was counted.

## CH3(CH2)14COKSSQYIKANSKFIGITEAAALLCLIFLLVGGGDPRVRGLYFPA (Palmitoyl-KSSQYIKANSKFIGITEAAALLCLIFLLVGGGDPRVRGLYFPA) [SEQ ID NO:51]
[1]
  proliferation of PBMCs: stimulated the proliferation of PBMCs from acute hepatitis B patient in convalescent phase in a manner of dose dependence

## CH3(CH2)10COKSSPADREGGGSLNFLGGTTVSSSDPRVRGLYFPA (Lauroyl-KSSPADREGGGSLNFLGGTTVSSSDPRVRGLYFPA) [SEQ ID NO:50]
[2]
  conversion of T-lymphocytes into Th1/Th2 type: induce the conversion of T-lymphocytes into both Th1 and Th2 types, with the conversion into Th1 type the most obvious

## CH3(CH2)7CH═CH(CH2)—CO, CH3CH2CH═CHCH2CH═CH(CH2)7CO7KSSQYIKANSKFIGITEGGGDPRVRGLYFPA (not fully specified (N-terminus); printed as CH3(CH2)7CH═CH(CH2)—CO, CH3CH2CH═CHCH2CH═CH(CH2)7CO7KSSQYIKANSKFIGITEGGGDPRVRGLYFPA) [SEQ ID NO:3]
[3]
  CTL effect, lysis of target cells: induce the CTL effect in human PBMC, and specifically lyzed and destroyed target cells
[4]
  proliferation of IFN-γ secreting cells: induce the proliferation of IFN-γ secreting cells in human PBMC in a notable dose-effect dependence relation

## CH3(CH2)14COKSSPADREAAAFLPSDFFPSVGGGDPRVRGLYFPA (Palmitoyl-KSSPADREAAAFLPSDFFPSVGGGDPRVRGLYFPA) [SEQ ID NO:56]
[5]
  minimum effective dose: 0.01 nmol
